Patent publication US20040147494A1, “Use” (priority 2001, published 2004)

How the values were obtained:
[1] = target: T1, 11 β-HSD type 2 (Rattus norvegicus, UniProt P50233); assay: biochemical; settings: rat kidney cytosol 150 μL, 60 min, 37° C., cortisol (F) to cortisone (E), vs control without inhibitor, means n=2; for inhibition at 10 µM: read-out: % […]→E ± SD, inhibitor 10 μM, read-out: % INHIBITION F→E ± SD
T1 construct: Both the kidneys and livers were homogenised on ice in PBS- sucrose buffer; tissue Harlan Olac, Bicester, Oxon, UK (rats); host or cells: rat kidney homogenate supernatant (Wistar rat)
T1 sequence (P50233 1-400): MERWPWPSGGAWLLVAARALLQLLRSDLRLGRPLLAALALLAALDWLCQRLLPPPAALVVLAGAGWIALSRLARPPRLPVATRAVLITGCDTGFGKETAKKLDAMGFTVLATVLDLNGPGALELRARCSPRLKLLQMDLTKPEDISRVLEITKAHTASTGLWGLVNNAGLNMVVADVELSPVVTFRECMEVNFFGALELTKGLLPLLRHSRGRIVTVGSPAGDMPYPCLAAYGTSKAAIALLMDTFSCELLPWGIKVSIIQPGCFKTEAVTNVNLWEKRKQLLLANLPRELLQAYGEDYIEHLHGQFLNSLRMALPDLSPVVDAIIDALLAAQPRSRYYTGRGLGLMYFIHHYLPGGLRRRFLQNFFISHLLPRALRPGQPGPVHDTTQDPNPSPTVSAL
Protocol: Enzymes—Rat livers and rat kidneys were obtained from normal Wistar rats (Harlan Olac, Bicester, Oxon,UK). Both the kidneys and livers were homogenised on ice in PBS- sucrose buffer (1 g/10 ml) using an Ultra-Turrax. After the livers and kidneys were homogenised the homogenate was centrifuged for five minutes at 4000 rpm. The supernatant obtained was removed and stored in glass vials at −20° C. The amount of protein per μl of rat liver and kidney cytosol was determined using the Bradford method.
The same procedure was used for the 11 β-HSD type 2 assay, the conversion F to E, to determine the amount of rat kidney to be used and the incubation time.
In these assays the influence of different inhibitors on the 11 β-HSD activity both in reductive (type 1) and oxidative (type 2) directions were assessed. In the reductive direction E is the substrate and F the product and visa versa in the case of oxidation. The method described here is for the oxidative direction.
The substrate solution contained about 50,000 cpm/ml ^3H—F in PBS-sucrose and 0.5 pM F. 1 ml of the substrate solution was added to each tube, the inhibitors were also added, at a 10 μM concentration, to each tube except to the “control” and “blank” tubes. 150 μL was added to all tubes except to the blanks, this was done to correct for the amount of ^3H[…]. The tubes were incubated for 60 minutes in a mechanically shaken water bath at 37° C. […] After incubation 50 μL of recovery was added to correct for the losses made in the next steps, containing 5000 cpm/50 μL of ^14C-E and 50 μg/50 μL of unlabelled E (to visualise the spot on the TLC-plate). The aqueous mixture was then extracted with 4 ml of ether (2×30 sec cycle, vortex mix). After freezing the aqueous phase, the ether (upper) layer was decanted into smaller tubes and evaporated at 45° C. until completely dry. The residue was then re-dissolved in 6 drops of ether and transferred to a TLC-plate. The TLC-plate was developed in chloroform:methanol (9:1 v/v) solvent system, the TLC-plate ran for about 90 minutes until the solvent front had moved about 18 cm. The position of the product E was visualised under UV-light and cut out from the TLC-plate and put into scintillation vials. Radioactivity was eluted over 5 minutes with 0.5 ml methanol. 0.5 ml of PBS- sucrose and 10 ml of Ecoscint were then added and vortex mixed before counting in the scintillation counter. Before counting the samples, two total activity vials were prepared. These contained 0.5 ml of the substrate solution, 50 μL of the recovery, 0.5 ml of methanol and 10 ml of Ecoscint. These two total activity vials were needed to determine the amount of ^14C-E and ^3H—F added in the beginning to make the calculations.
To look at the percentage of inhibition four different concentrations, 1, 5, 10 and 20 μM, were used. The method for both the rat liver, type 1 the reductive, and rat kidney, type 2 the oxidative, stay the same throughout the entire experiment.
In this experiment the influence of different inhibitors on the conversion E to F and F to E was determined. The reason why inhibition in both directions was examined was to make a comparison between the inhibitors and which type of 11 β-HSD they inhibit more. Thirty-two compounds were screened for their ability to inhibit 11 β-HSD type 1 (E to F) and type 2 (F to E). […] The percent of inhibition was calculated as the percentage of decrease in radio labelled ^3H-E and ^3H—F of product formed, compared with the control activity (the tubes without an inhibitor in it). All the results calculated are means, n=2.

[2] = target: T2, 11 β-HSD type 1 (Rattus norvegicus, UniProt P16232); assay: biochemical; format: biochemical; settings: rat liver cytosol 25 μL, 90 min, 37° C., cortisone (E) to cortisol (F), vs control without inhibitor, means n=2; for inhibition at 10 µM: read-out: % […]→F ± SD, inhibitor 10 μM, read-out: % INHIBITION E→F ± SD
T2 construct: Both the kidneys and livers were homogenised on ice in PBS- sucrose buffer; tissue Harlan Olac, Bicester, Oxon, UK (rats); host or cells: rat liver homogenate supernatant (Wistar rat)
T2 sequence (P16232 whole entry): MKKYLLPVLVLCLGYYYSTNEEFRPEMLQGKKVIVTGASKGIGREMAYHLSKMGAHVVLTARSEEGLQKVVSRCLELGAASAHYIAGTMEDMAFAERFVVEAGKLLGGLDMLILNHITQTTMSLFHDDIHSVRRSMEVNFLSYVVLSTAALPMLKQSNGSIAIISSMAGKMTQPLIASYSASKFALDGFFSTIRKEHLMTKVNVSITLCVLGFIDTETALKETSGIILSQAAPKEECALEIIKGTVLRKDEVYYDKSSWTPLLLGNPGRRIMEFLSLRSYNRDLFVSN

Compound | melting point | inhibition at 10 µM [1] [%] | inhibition at 10 µM [2] [%] | further results
CC1(C)C2CC[C@]3(C)C(CC=C4[C@@H]5C[C@@](C)(C(=O)OCc6ccccc6)CC[C@]5(C)CC[C@]43C)[C@@]2(C)CC[C@H]1O (some centres unmarked) | 151 to 152 °C |  |  | 
CC(C)(C)OC(=O)[C@@]1(C)CC[C@]2(C)CC[C@]3(C)C(=CC(=O)C4[C@@]5(C)CC[C@H](O)C(C)(C)C5CC[C@]43C)[C@@H]2C1 (some centres unmarked) | 171 to 174 °C |  |  | 
CC(C)(C)OC(=O)[C@@]1(C)CC[C@]2(C)CC[C@]3(C)C(=CC(=O)C4[C@@]5(C)CC[C@@H](O)C(C)(C)C5CC[C@]43C)[C@@H]2C1 (some centres unmarked) | 95 to 97 °C |  |  | 
CC1(C)C2CC[C@]3(C)C(C(=O)C=C4[C@@H]5C[C@@](C)(C(=O)OCCc6ccccc6)CC[C@]5(C)CC[C@]43C)[C@@]2(C)CC[C@@H]1O (some centres unmarked) | 171 to 172 °C |  |  | 
CC1(C)C2CC[C@]3(C)C(C(=O)C=C4[C@@H]5C[C@@](C)(C(=O)OCCCc6ccccc6)CC[C@]5(C)CC[C@]43C)[C@@]2(C)CC[C@H]1O (some centres unmarked) | 114 to 116 °C |  |  | 
CC(C)OC(=O)[C@@]1(C)CC[C@]2(C)CC[C@]3(C)C(=CC(=O)C4[C@@]5(C)CC[C@H](O)C(C)(C)C5CC[C@]43C)[C@@H]2C1 (some centres unmarked) | 271 to 273 °C (dec.) |  |  | 
CC(C)OC(=O)[C@@]1(C)CC[C@]2(C)CC[C@]3(C)C(=CCC4[C@@]5(C)CC[C@H](O)C(C)(C)C5CC[C@]43C)[C@@H]2C1 (some centres unmarked) | 201 to 203 °C |  |  | 
COC(=O)[C@@]1(C)CC[C@]2(C)CC[C@]3(C)C(=CCC4[C@@]5(C)CCC(=O)C(C)(C)C5CC[C@]43C)[C@@H]2C1 (some centres unmarked) | 234 to 236 °C |  |  | 
CC1(C)C2CC[C@]3(C)C(CC=C4[C@@H]5C[C@@](C)(C(=O)OC6CCCCC6)CC[C@]5(C)CC[C@]43C)[C@@]2(C)CC[C@@H]1O (some centres unmarked) | 163 to 166 °C |  |  | 
CC1(C)C2CC[C@]3(C)C(CC=C4[C@@H]5C[C@@](C)(C(=O)OCCc6ccccc6)CC[C@]5(C)CC[C@]43C)[C@@]2(C)CC[C@@H]1O (some centres unmarked) | 153 to 155 °C |  |  | 
CC1(C)C2CC[C@]3(C)C(CC=C4[C@@H]5C[C@@](C)(C(=O)OCC6CCCCC6)CC[C@]5(C)CC[C@]43C)[C@@]2(C)CC[C@@H]1O (some centres unmarked) | 133 to 134 °C |  |  | 
CC(O)C1CCC2C3CCC4=C[C@@H](O)CC[C@]4(C)C3[C@H](O)C[C@]12C (stereo in doubt) [STX125, 3,11,20-Trihydroxyproqesterone] | 122 to 125 °C | 72.2 ± 4.3 | 85.1 ± 3.4 | 
CC(O)C1CCC2C3CCC4=C[C@@H](O)CC[C@]4(C)C3[C@H](OCc3ccccc3)C[C@]12C (stereo in doubt) [STX-126, 11α-benzyloxy-3,20-dihydroxyprogesterone] | 117 to 118 °C | 13.5 ± 2.97 | 33.8 ± 0.354 | 
COC(=O)[C@@]1(C)CC[C@]2(C)CC[C@]3(C)C(=CCC4[C@@]5(C)CC[C@H](O)C(C)(C)C5CC[C@]43C)[C@@H]2C1 (some centres unmarked) [DG 383 B] | 291 to 293 °C |  |  | 
COC(=O)[C@@]1(C)CC[C@]2(C)CC[C@]3(C)C(=CCC4[C@@]5(C)CC[C@H](O)C(C)(C)C5CC[C@]43C)[C@@H]2C1 (some centres unmarked) [DGS01092 B] | 135 to 137 °C |  |  | 
CC(=O)C1CCC2C3CCC4=CC(=O)CC[C@]4(C)C3C(=O)C[C@]12C (some centres unmarked) [STX124, 11-Oxo-progesterone] | 182 to 183 °C | 92.6 ± 2.1 | 100 ± 6.8 | 
CO[C@@H]1C[C@]2(C)C(C(C)=O)CCC2C2CCC3=CC(=O)CC[C@]3(C)C21 (stereo partly drawn) [STX193, 11α-Methoxyprogesterone] | 164 to 165 °C | 68.2 ± 3.68 | 48.1 ± 0.313 | 
CC1(C)C2CC[C@]3(C)C(C(=O)C=C4[C@@H]5C[C@@](C)(CO)CC[C@]5(C)CC[C@]43C)[C@@]2(C)CC[C@@H]1O (some centres unmarked) [STX 349] |  | 100 ± 0.49 | 89.7 ± 4.9 | 
CC1(C)C2CC[C@]3(C)C(CC=C4[C@@H]5C[C@@](C)(CO)CC[C@]5(C)CC[C@]43C)[C@@]2(C)CC[C@@H]1O (some centres unmarked) [STX 350] |  | 60.3 ± 3.99 | 13.4 ± 9.63 | 
CC1(C)C2CC[C@]3(C)C([C@H](O)C=C4[C@@H]5C[C@@](C)(CO)CC[C@]5(C)CC[C@]43C)[C@@]2(C)CC[C@@H]1O (some centres unmarked) [STX 351] |  | 94.41 ± 0.63 | 70 ± 6.39 | 
COC(=O)[C@@]1(C)CC[C@]2(C)CC[C@]3(C)C(=CC(=O)[C@@H]4[C@@]5(C)CC[C@H](OCc6ccccc6)C(C)(C)C5CC[C@]43C)[C@@H]2C1 (some centres unmarked) [STX 359] |  | 17 ± 3.5 | 17.8 ± 2.5 | 
COC(=O)[C@@]1(C)CC[C@]2(C)CC[C@]3(C)C(=CC(=O)[C@@H]4[C@@]5(C)CC[C@H](OCc6ccc(C(C)(C)C)cc6)C(C)(C)C5CC[C@]43C)[C@@H]2C1 (some centres unmarked) [STX 360] |  | 26.4 ± 11.6 | 14.7 ± 2.4 | 
CC(=O)O[C@H]1CC[C@@]2(C)C(CC[C@]3(C)[C@@H]2C(=O)C=C2[C@@H]4C[C@@](C)(C(=O)NCc5ccccc5)CC[C@]4(C)CC[C@]23C)C1(C)C (stereo partly drawn) [STX 367, 3β-Acetoxy-18β-Glycyrrhetinic Acid Benzylamide] |  | 27.3 ± 2.99 | 36.2 ± 3.69 | 
CCOC(=O)[C@H](C)NC(=O)[C@@]1(C)CC[C@]2(C)CC[C@]3(C)C(=CC(=O)[C@@H]4[C@@]5(C)CC[C@H](O)C(C)(C)C5CC[C@]43C)[C@@H]2C1 (stereo partly drawn) [STX 369, 18β-Glycyrrhetinic Acid L-alanine Ethyl Ester Amide] |  | 35.4 ± 12.6 | 24.9 ± 2.51 | 
CC1(C)C2CC[C@]3(C)[C@H](C(=O)C=C4[C@@H]5C[C@@](C)(C(=O)NC6CC6)CC[C@]5(C)CC[C@]43C)[C@@]2(C)CC[C@@H]1O (stereo partly drawn) [STX 370, 18β-Glycyrrhetinic Acid Cyclopropylamide] |  | 102.5 ± 0.22 | 89.6 ± 1.18 | 
CC1(C)C2CC[C@]3(C)[C@H](C(=O)C=C4[C@@H]5C[C@@](C)(C(=O)NCc6ccccn6)CC[C@]5(C)CC[C@]43C)[C@@]2(C)CC[C@@H]1O (stereo partly drawn) [STX 371, 18β-Glycyrrhetinic Acid (pyridin-2-ylmethyl)-amide] |  | 93 ± 2.75 | 57.1 ± 5.6 | 
CC1(C)C2CC[C@]3(C)[C@H](C(=O)C=C4[C@@H]5C[C@@](C)(C(=O)NCCN6CCOCC6)CC[C@]5(C)CC[C@]43C)[C@@]2(C)CC[C@@H]1O (some centres unmarked) [STX 372, 18-Glycyrrhetinic Acid (2-morpholin-4-yl-ethyl)-amide] |  | 65.8 ± 20.9 | 19.4 ± 7.81 | 
Deoxycorticosterone [reference compound] |  |  |  | % INHIBITION F→E ± SD ([1]; inhibitor 10 μM): 53.3 ± 1.273%; % INHIBITION E→F ± SD ([2]; inhibitor 10 μM): 70.2 ± 1.655%
